Test results taken from US20220356170A1, “SREBP INHIBITOR COMPRISING A THIOPHENE CENTRAL RING” (Capulus Therapeutics, LLC, priority 2019, published 2022).
Read-outs that look alike come from different tables or passages of the source.

Tests used:
[1] = In vivo pharmacokinetics, oral; conditions: male C57 BL/6 mice
Description: (§1) The in vivo pharmacokinetic properties of Compound 1 by both intravenous and oral administration were evaluated in male C57 BL/6 mice. The in vivo pharmacokinetic properties of Compound 2 by both intravenous and oral administration were evaluated in male C57 BL/6 mice for comparison.
(§2) Animals were housed in cages with clean bedding. Certified rodent diet was provided. Water was available ad libitum. Environmental controls for the animal room were set to maintain a temperature of 22 to 25° C., humidity of 40-70% RH, and a 12-hour light /12-hour dark cycle. Normal healthy animals certified by the attending veterinarian were selected and acclimatized for minimum three days prior to initiation of study.
(§3) Procedure for Blood Withdrawal: Mice were anesthetized using gaseous anesthesia. Blood samples were collected through a capillary, guided in retro-orbital plexus. At each time point, blood samples from 3 mice of each respective group were collected. The blood samples were collected in pre-labeled tubes. 0.2 to 0.3 mL of blood were collected from each mouse. After collection of the blood samples at each time point, the samples were stored on ice prior to centrifugation. Blood samples were centrifuged within 15 minutes to separate plasma. Centrifugations was done at 1540 rcf (5000 rpm) at 4° C. for 10 minutes. The plasma was separated and transferred to pre-labeled micro-centrifuge tubes and promptly frozen at −80±10° C. until bioanalysis was performed. Samples were identified by test item, group, animal number, and collection time point.
To evaluate pharmacokinetic properties of oral delivery, nine male C57 BL/6 mice were administered 10 mg Compound 1/kg animal weight by mouth. The concentration of Compound 1 in the plasma of the animals was evaluated at 0.25, 0.5, 1, 2, 4, 6, 8, and 24 hr by taking blood samples. Compound 2 was similarly administered for comparison.

[2] = In vivo pharmacokinetics, intravenous; conditions: male C57 BL/6 mice, dose 2.00 mg/kg (Compound 1), 2.43 mg/kg (Compound 2); for Vd: male, C57 BL/6, mouse, iv
Description: as §1, §2, §3
To evaluate pharmacokinetic properties of intravenous delivery, nine male C57 BL/6 mice were administered 2.00 mg Compound 1/kg animal weight through the tail vein. The concentration of Compound 1 in the plasma of the animals was evaluated at 0.083, 0.25, 0.5, 1, 2, 4, 8, and 24 hr by taking blood samples from the mice. Compound 2 was similarly administered for comparison.

[3] = mouse, plasma, oral, dose 10.00 mg/kg (Compound 1), 12.01 mg/kg (Compound 2)

bioavailability ([1]; mouse, plasma, oral vs intravenous): 66.6%
AUC(0-inf) [1, 3]: 9300 ng·h/mL
AUC(0-t) [1, 3]: 8060 ng·h/mL
Cmax [1, 3]: 2180 ng/mL
Tmax [1, 3]: 0.25 h
half-life [1, 3]: 9.46 h
MRT last ([1]; mouse, plasma, oral, dose 10.00 mg/kg (Compound 1), 12.01 mg/kg (Compound 2), read-out: MRT0-last): 6.61 h
AUCExtra ([1]; oral, dose 10.00 mg/kg (Compound 1), 12.01 mg/kg (Compound 2)): 13.38%
AUCExtra [2]: 0.48%
Vd ([2]; plasma, read-out: Vd): 4.55 L/kg
Vd ([2]; plasma, read-out: Vss): 2.32 L/kg
AUC(0-inf) ([2]; mouse, plasma): 2820 ng·h/mL
AUC(0-t) ([2]; mouse, plasma): 2810 ng·h/mL
C0 ([2]; mouse, plasma): 2670 ng/mL
clearance ([2]; mouse, plasma): 14.3 mL/min/kg
half-life ([2]; mouse, plasma): 3.67 h
MRT last ([2]; mouse, plasma, read-out: MRT0-last): 2.56 h
Structure (SMILES): CC(C)(CO)c1cc(-c2csc(-c3ccc(C(=O)N4CCC(O)CC4)cc3Cl)c2)ccn1 [Compound 2, reference compound]
